Laboratory results from patent publication US20170016037A1, “Method for Increasing the Solubility of Methionine by Mineral Addition and Acid Treatment” (CJ CHEILJEDANG CORPORATION, priority 2009, published 2017).
Like-named read-outs stand apart in the source and are kept apart here.

Experiments:
[1] = cited from earlier work; for solubility in the aqueous solution: generally
[2] = cited from earlier work
[3] = pH 2; cited from earlier work

methionine solution concentration (L-methionine crystal powder purified to 99% or more from fermentation/enzymatic conversion solution, same manner as Examples 1 to 4)	solubility of L-methionine (L-methionine-containing solution produced by fermentation and enzymatic conversion reaction)	result of the same experiment using DL-methionine (as Example 1 (manganese sulfide, 0.1 M sulfuric acid; 50% solution), DL-methionine 99% Sigma)	result of the same experiment using DL-methionine (as Example 2 (zinc sulfide, 0.1 M sulfuric acid; 50% solution))	result of the same experiment using DL-methionine (as Example 3 (3.75% minerals, 0.1 M sulfuric acid; 50% solution))	result of the same experiment using DL-methionine (as Example 4 (1.88% minerals, 0.1 M sulfuric acid; 50% solution))	methionine solubility maximized by combination of mineral addition and acid addition (summary statement, mineral amount less than 15% of the method used before)	Compound	solubility in the aqueous solution [1]	solubility of DL-methionine with use of mineral ([2]; U.S. Pat. No. 5,430,164, mineral)	solubility of DL-methionine with acid treatment [3]	solubility of methionine in water ([1]; room temperature, generally known)	maximum methionine solution concentration ([2]; U.S. Pat. No. 5,430,164, total 3.5 to 3.9 M minerals (3.35 M zinc sulfate, 0.167 to 0.569 M ferric chloride), 1 L)
≥ 50%	up to 35%						CSCC[C@H](N)C(=O)O [L-methionine]	about 5 % (w/v)				
		identical results	identical results	identical results	identical results		CSCCC(N)C(=O)O (racemic) [DL-methionine]	about 5 % (w/v)	up to 12 % (w/v)	18 % (w/v)		
						50%	CSCC[C@H](N)C(=O)O (racemic) [methionine]				50 to 55 mg/mL	≤ 50%
